Source: ChEMBL document CHEMBL1201862, “PubChem BioAssay data set” (2004)
The source made the active and inactive calls.

Assays:
HEK293 [1] = test: HEK293T cell viability loss, resazurin readout – resazurin fluorescence, cytotoxicity control for NF-kB activator project, SAR follow-up (AID 493251); type: functional, cell-based; settings: Homo sapiens
HEK293 [2] = test: SAR Analysis of small molecule inhibitors of B-cell specific antigen receptor-induced NF-kB activation in a HEK-293T cell line using a luminescence assay - Set 2. [Related pubchem assays (depositor defined):AID435022, AID435025, AID489021]; type: functional, cell-based; settings: Homo sapiens
Jurkat = test: SAR Analysis of small molecule inhibitors of […] specific antigen receptor-induced NF-kB activation in a Jurkat cell line using a luminescence assay - Set 3. [Related pubchem assays (depositor defined):AID435022, AID435025, AID465]; type: functional, cell-based; settings: Homo sapiens
[3] = target: T1, Small ubiquitin-related modifier 1 (Homo sapiens, UniProt P63165); test: SUMO1 protein-protein binding blockers, potency – biochemical, FRET, dose response (AID 624383); type: functional; settings: read-out: IC50_Mean
T1 sequence (P63165 whole entry): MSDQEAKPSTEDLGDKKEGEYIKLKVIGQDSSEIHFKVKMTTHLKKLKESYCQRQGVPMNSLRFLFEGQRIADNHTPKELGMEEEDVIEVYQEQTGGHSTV

[4] = target: T2, Apoptotic protease-activating factor 1 (Homo sapiens, UniProt O14727); test: activation of Apaf-1 mediated apoptosis – fluorescent, uHTS hits, dose response (AID 588554); type: functional
T2 sequence (O14727 whole entry): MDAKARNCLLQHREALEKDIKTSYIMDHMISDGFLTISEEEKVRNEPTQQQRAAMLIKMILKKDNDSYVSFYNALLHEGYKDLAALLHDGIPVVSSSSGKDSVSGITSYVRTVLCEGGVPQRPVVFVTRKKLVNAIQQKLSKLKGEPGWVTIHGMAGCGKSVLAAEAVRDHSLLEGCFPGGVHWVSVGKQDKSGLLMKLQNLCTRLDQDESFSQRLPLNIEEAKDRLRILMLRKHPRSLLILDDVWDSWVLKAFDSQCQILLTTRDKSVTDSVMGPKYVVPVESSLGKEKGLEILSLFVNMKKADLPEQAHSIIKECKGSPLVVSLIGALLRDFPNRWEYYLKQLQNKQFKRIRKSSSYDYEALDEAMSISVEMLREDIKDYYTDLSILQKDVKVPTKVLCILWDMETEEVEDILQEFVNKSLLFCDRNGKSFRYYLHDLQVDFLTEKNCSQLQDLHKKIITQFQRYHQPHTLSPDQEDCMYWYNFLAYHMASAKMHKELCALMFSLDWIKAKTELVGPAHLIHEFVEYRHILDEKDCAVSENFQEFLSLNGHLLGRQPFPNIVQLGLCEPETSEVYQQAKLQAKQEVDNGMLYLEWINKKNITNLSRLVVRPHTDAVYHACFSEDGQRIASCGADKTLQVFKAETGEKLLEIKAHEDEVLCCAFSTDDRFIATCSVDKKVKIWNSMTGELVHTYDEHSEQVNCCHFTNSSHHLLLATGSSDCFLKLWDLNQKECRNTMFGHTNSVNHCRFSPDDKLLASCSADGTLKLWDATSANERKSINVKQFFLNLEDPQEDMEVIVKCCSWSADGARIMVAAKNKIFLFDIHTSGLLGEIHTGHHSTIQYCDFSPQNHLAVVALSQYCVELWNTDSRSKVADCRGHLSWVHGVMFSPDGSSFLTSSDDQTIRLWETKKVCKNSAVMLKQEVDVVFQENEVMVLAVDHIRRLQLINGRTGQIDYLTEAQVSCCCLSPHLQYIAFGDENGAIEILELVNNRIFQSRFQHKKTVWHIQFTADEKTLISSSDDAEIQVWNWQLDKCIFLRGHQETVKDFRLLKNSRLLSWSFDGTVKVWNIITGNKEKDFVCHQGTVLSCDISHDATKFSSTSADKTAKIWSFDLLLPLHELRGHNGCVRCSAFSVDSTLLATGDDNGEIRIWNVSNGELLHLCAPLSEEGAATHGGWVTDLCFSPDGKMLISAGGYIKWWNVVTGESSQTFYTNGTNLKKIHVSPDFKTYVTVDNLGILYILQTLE

[5] = target: T1, Small ubiquitin-related modifier 1; test: SUMO1 protein interaction blockers, potency – biochemical, fluorescence polarization, uHTS hits, dose response (AID 624382); type: functional; settings: read-out: IC50_Mean
[6] = target: DNA dC->dU-editing enzyme APOBEC-3G (Homo sapiens, UniProt Q9HC16); test: Dose Response confirmation of small molecule APOBEC3G DNA Deaminase Inhibitors via a fluorescence-based single-stranded DNA deaminase assay. [Related pubchem assays (depositor defined):AID493012, AID493028]; type: functional
Chain of DNA dC->dU-editing enzyme APOBEC-3G (Q9HC16 whole entry): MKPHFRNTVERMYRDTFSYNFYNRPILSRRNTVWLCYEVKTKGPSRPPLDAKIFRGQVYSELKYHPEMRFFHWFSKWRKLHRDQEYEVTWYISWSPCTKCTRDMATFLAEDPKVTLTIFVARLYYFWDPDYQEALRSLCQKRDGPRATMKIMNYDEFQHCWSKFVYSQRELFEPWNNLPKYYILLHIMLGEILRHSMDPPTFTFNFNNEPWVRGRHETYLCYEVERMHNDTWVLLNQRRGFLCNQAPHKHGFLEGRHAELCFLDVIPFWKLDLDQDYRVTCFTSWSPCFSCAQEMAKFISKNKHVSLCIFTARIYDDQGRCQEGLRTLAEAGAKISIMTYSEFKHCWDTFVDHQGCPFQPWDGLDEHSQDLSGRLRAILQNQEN

[7] = target: DNA dC->dU-editing enzyme APOBEC-3A (Homo sapiens, UniProt P31941); test: A3A deaminase inhibition for selectivity – biochemical, dose response (AID 504722); type: functional
Chain of DNA dC->dU-editing enzyme APOBEC-3A (P31941 whole entry): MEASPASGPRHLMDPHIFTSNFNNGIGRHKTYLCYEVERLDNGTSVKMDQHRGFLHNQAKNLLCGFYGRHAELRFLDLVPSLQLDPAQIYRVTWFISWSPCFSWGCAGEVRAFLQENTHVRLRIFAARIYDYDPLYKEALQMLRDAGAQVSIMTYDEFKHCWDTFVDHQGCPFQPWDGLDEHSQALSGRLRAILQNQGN

[8] = target: DNA (cytosine-5)-methyltransferase 1 (Homo sapiens, UniProt P26358); test: inhibition of DNA methylation by DNMT1 – biochemical, fluorescent molecular beacon, confirmation (AID 602386); type: functional
Chain of DNA (cytosine-5)-methyltransferase 1 (P26358 whole entry, the tested form may be a part): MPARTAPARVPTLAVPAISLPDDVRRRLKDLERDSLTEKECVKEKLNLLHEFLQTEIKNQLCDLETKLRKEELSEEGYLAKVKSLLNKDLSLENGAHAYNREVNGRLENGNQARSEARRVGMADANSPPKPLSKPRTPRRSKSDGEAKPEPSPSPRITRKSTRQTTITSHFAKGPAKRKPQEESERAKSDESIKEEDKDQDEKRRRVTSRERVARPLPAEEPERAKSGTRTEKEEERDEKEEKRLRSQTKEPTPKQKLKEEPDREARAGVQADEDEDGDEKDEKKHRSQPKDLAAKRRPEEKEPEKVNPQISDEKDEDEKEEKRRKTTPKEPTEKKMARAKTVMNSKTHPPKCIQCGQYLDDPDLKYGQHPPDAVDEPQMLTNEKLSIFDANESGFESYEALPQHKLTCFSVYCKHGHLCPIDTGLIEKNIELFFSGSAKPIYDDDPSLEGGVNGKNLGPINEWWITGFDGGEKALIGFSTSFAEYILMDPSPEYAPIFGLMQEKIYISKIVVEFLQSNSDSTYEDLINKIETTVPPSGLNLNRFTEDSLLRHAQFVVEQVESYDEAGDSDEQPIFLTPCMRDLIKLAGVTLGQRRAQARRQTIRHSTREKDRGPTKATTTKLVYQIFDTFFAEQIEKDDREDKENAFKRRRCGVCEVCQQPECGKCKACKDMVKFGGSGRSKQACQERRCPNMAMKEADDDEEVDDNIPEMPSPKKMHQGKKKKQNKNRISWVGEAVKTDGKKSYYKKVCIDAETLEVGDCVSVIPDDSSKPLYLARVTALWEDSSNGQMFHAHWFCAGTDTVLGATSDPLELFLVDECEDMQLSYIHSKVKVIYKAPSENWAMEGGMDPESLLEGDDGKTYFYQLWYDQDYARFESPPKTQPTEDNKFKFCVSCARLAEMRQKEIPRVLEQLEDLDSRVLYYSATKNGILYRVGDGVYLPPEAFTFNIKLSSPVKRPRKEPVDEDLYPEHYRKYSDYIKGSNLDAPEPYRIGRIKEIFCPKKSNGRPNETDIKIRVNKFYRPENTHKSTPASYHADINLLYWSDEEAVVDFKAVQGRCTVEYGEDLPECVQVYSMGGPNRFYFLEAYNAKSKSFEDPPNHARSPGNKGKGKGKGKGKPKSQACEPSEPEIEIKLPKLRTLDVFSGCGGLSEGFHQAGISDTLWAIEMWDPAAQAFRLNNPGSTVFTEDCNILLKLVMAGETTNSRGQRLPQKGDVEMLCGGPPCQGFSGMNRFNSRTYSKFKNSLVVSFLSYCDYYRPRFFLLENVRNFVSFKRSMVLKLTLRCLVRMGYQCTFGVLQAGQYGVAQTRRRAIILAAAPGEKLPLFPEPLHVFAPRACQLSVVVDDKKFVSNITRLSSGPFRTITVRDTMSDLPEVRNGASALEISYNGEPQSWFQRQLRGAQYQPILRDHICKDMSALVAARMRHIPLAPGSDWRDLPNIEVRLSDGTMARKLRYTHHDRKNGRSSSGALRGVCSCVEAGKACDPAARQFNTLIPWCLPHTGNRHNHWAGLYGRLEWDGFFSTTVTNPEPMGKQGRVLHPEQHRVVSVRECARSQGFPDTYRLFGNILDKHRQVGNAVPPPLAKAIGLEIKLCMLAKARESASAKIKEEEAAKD

[9] = target: T3, Carboxy-terminal domain RNA polymerase II polypeptide A small phosphatase 1 (Homo sapiens, UniProt Q9GZU7); test: CTDSP1 inhibitors, concentration-response, biochemical, absorbance readout, ultra-high-throughput screen actives (AID 540297); type: functional
T3 sequence (Q9GZU7 whole entry): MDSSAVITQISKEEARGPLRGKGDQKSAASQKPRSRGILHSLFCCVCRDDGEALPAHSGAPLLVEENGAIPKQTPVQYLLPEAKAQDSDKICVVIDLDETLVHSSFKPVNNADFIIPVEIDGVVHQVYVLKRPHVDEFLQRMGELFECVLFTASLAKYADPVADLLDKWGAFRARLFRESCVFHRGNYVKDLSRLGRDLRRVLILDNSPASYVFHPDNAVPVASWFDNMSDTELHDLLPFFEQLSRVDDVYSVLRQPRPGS

Cytochrome P450 2D6 = Cytochrome P450 2D6 (Homo sapiens, UniProt P10635);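 note: CYP2D6 member of a cytochrome P450 panel assay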
Chain of Cytochrome P450 2D6 (P10635 whole entry): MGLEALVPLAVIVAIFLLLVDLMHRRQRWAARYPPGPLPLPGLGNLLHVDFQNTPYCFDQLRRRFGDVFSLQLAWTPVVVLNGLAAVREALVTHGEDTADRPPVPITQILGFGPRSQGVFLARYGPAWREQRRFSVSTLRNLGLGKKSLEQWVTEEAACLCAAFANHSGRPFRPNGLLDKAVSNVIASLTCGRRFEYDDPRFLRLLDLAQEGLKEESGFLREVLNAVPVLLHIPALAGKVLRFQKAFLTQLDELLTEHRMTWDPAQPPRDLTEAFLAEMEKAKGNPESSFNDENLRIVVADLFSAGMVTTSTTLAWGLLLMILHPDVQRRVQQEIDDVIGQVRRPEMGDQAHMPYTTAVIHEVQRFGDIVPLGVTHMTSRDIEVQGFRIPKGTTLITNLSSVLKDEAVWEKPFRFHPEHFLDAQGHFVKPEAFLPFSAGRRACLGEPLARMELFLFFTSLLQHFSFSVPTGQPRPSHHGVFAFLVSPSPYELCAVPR

Streptokinase A = target: T4, Streptokinase A (Streptococcus pyogenes serotype M1, UniProt P10520); test: viability-normalized secreted streptokinase activity reduction – plasminogen activation absorbance, OD405, dose response (AID 1914); type: functional, Streptococcus pyogenes M1 GAS;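 note: secreted streptokinase activity via plasminogen activation per viability signal from cell pellet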
T4 sequence (P10520 whole entry): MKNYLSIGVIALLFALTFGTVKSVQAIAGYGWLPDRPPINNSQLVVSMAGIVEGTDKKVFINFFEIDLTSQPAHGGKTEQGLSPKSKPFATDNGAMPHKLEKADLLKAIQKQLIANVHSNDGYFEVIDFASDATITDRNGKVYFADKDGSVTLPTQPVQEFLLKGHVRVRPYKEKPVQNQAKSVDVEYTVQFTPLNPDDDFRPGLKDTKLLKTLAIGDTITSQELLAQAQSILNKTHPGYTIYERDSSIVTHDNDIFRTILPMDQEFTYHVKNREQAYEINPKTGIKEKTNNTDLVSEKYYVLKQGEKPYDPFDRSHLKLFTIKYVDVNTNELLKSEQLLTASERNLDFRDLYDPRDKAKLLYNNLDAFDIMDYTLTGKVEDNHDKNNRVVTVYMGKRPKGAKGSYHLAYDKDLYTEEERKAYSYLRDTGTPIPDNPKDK

[10] = target: G-protein coupled receptor 55 (Homo sapiens, UniProt Q9Y2T6); test: blockers of GPR55 signalling, imaged – imaging, image-based, counter-screen for GPR35 antagonist project, SAR follow-up (AID 2397); type: functional
Chain of G-protein coupled receptor 55 (Q9Y2T6 whole entry): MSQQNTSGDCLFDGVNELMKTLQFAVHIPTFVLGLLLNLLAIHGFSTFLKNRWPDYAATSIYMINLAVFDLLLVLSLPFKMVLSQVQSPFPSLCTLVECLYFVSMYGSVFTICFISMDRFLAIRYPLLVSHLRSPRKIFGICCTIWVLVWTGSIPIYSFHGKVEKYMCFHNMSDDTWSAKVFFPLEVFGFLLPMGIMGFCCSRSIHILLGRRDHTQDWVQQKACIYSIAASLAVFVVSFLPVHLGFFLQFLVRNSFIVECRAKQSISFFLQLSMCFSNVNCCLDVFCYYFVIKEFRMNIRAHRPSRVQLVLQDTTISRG

Streptococcus = test: GAS UMAA2166 growth inhibition – luminescence, BacTiterGlo, counter-screen for streptokinase expression inhibitor project, dose response (AID 1915); type: functional, organism-based;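 note: potency for reduction of bacterial viability or growth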
[11] = cAMP pathway inhibition in counterscreen cell line – TR-FRET cAMP detection, counter-screen for MC4R biased antagonist project, dose response (AID 602305); type: functional, cell-based;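 note: U2OS cells stimulated with forskolin near its EC80 as the cAMP inducer; potency is for inhibition of forskolin-stimulated cAMP signaling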
Melanocortin receptor 4 = Melanocortin receptor 4 (Homo sapiens, UniProt P32245); test: inhibitors of MC4R cAMP signaling – cell-based, TR-FRET, biased antagonists, dose response (AID 602298); type: functional;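 note: antagonist potency against agonist-stimulated cAMP production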
Chain of Melanocortin receptor 4 (P32245 whole entry): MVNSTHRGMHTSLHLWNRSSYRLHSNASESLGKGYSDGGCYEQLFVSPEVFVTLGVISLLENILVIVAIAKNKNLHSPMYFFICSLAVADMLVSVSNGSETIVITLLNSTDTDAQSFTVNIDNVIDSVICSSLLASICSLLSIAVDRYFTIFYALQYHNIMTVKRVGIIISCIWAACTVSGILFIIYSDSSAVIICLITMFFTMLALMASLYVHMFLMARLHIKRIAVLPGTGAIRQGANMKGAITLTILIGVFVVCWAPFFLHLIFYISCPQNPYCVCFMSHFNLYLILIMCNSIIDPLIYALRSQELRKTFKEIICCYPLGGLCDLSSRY

[12] = system: Streptococcus sp. 'group A'; test: Streptococcus pyogenes SK(-)GAS viability under kanamycin – luminescence, BacTiterGlo, confirmation, counter-screen for streptokinase expression inhibitor project, dose response (AID 1900); type: functional, organism-based
[13] = target: T5, Intestinal-type alkaline phosphatase (Homo sapiens, UniProt P09923); test: inhibition of human intestinal alkaline phosphatase – biochemical, luminescent, uHTS hits, set 2, dose response (AID 488793); type: functional
T5 sequence (P09923 whole entry): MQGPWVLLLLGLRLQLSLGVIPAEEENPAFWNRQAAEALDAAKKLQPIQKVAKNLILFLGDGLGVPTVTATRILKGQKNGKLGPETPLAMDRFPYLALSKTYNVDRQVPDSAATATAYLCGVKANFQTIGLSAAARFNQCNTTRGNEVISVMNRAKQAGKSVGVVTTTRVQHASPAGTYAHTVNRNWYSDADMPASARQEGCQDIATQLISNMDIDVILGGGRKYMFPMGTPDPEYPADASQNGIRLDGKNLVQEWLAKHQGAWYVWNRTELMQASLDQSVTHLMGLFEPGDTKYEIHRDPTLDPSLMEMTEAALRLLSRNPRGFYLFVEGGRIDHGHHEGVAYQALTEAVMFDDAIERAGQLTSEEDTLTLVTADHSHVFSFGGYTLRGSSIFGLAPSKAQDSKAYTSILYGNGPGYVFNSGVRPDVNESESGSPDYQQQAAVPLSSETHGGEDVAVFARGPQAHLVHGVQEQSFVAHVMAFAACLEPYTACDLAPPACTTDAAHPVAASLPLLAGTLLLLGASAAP

[14] = target: T6, Intestinal-type alkaline phosphatase (Mus musculus, UniProt P24822); test: PubChem AID 488875; type: functional
T6 sequence (P24822 whole entry): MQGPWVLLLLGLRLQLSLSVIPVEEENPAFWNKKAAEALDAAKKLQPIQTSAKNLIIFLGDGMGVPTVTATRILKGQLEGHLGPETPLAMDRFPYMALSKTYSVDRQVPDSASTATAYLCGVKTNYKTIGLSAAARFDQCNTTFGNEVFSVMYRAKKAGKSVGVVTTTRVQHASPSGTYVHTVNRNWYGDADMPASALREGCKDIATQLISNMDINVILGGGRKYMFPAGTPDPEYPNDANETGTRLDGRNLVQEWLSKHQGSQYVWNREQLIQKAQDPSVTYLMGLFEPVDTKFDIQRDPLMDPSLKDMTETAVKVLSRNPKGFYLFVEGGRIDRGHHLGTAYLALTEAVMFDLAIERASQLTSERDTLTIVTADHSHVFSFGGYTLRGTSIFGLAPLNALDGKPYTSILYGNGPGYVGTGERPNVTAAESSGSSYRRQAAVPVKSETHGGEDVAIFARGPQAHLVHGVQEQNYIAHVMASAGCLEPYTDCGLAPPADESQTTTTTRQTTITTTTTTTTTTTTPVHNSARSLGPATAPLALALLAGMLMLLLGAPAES

[15] = target: T7, Alkaline phosphatase, tissue-nonspecific isozyme (Homo sapiens, UniProt P05186); test: inhibition of tissue-nonspecific alkaline phosphatase – biochemical, dose response (AID 488882); type: functional
T7 sequence (P05186 whole entry): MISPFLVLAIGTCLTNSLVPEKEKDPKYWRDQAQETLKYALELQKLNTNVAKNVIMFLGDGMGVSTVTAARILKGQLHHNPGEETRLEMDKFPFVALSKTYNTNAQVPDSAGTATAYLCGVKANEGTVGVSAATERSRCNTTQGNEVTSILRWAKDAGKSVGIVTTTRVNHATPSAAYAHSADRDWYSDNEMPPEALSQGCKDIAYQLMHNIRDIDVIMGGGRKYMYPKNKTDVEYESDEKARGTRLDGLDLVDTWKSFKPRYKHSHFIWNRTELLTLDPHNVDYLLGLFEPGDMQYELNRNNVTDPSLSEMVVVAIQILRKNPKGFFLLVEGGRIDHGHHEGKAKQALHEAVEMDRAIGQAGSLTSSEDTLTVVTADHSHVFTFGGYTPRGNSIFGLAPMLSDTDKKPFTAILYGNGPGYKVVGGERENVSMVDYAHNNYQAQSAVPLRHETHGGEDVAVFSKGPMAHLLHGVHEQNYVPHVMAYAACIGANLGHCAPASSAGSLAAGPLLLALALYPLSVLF

[16] = target: T5, Intestinal-type alkaline phosphatase; test: Dose Response confirmation of uHTS hits from a small molecule inhibitors of human intestinal alkaline phosphatase via a luminescent assay. [Related pubchem assays (depositor defined):AID2544, AID2574]; type: functional
[17] = target: T5, Intestinal-type alkaline phosphatase; test: activation of human intestinal alkaline phosphatase – biochemical, luminescent, uHTS hits, set 2, dose response (AID 488817); type: functional;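 note: potency of activators that raise enzyme activity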
[18] = target: T7, Alkaline phosphatase, tissue-nonspecific isozyme; test: activation of tissue-nonspecific alkaline phosphatase – biochemical, TNAP isozyme, human IAP uHTS hits, selectivity assay for human IAP activator project, dose response (AID 488886); type: functional;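 note: potency of compounds raising TNAP activity as a selectivity check on IAP activators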
[19] = target: T6, Intestinal-type alkaline phosphatase; test: PubChem AID 488874; type: functional
[20] = target: T5, Intestinal-type alkaline phosphatase; test: human intestinal alkaline phosphatase activators, dose response, biochemical, luminescence, uHTS hits (AID 463120); type: functional
[21] = Luminescence Cell-Based Dose Confirmation HTS to Identify Activators of 5'UTR Stem-Loop Driven Alpha-Synuclein mRNA Translation in H4 Neuroglioblastoma Cells. [Related pubchem assays: 1829 (Project Summary), 1814 (Primary HTS)]; type: functional
[22] = Luminescence Cell-Based Dose Response HTS to Identify Activators of Luciferase Translation or Activity in H4 […] Cells. [Related pubchem assays: 1829 (Project Summary), 1814 (Primary HTS)]; type: functional
[23] = Luminescence Cell-Based Dose Retest to Confirm Inhibitors of Cancer Stem Cells. [Related pubchem assays (depositor defined):AID2717, AID2721]; type: functional; settings: Homo sapiens
cells [24] = type: functional, cell-based
[25] = viability loss of HMLE_sh_eGFP cells – cell-based, luminescence, counter-screen for HMLE_sh_ECad selective toxicity project, dose response (AID 463074); type: functional, Homo sapiens;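 note: HMLE human mammary epithelial cells expressing control shRNA against eGFP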
cells [26] = type: functional, cell-based; remark: listed apart in the source
H4 = test: Luminescence Cell-Based Dose Response HTS to Identify Activators of 5'UTR Stem-Loop Driven Prion Protein mRNA Translation in H4 Neuroglioblastoma Cells. [Related pubchem assays: 1829 (Project Summary), 1814 (Primary HTS)]; type: functional; settings: Homo sapiens

CCOc1ccc(-c2nc(CSCC(=O)NCCN3CCCC3)c(C)o2)cc1
IC50 (HEK293 [1]): > 80 µM (inactive) | IC50 (HEK293 [2]): 28.4 µM (inactive) | IC50 (Jurkat): 10.4 µM (active)

C=C(C)C(=O)Nc1cccc(C2=NOC3(C2)C[C@@H](C(N)=O)N(C(=O)/C=C/CC)C3)c1 (some centres not stated)
IC50 [3]: 3.25 µM (active) | EC50 [4]: 4.43 µM (active) | IC50 [5]: > 66.6 µM (inactive) | IC50 [6]: 6.06 µM (active) | IC50 [7]: > 100 µM (inactive) | IC50 [8]: 5.96 µM (active) | IC50 [9]: 1.73 µM (active)

CC1Cc2ccccc2N1C(=O)CN1C(=O)COc2ccccc21 (configuration not stated)
AC50 (Cytochrome P450 2D6): inconclusive

Cc1nc(N2CCC(C)CC2)c2c(C)c(C(=O)Nc3ccccc3C(F)(F)F)sc2n1
EC50 (Streptokinase A): 6.34 µM (active) | IC50 [10]: 6.95 µM (active) | EC50 (Streptococcus): 41.5 µM (active) | IC50 [11]: > 64.6 µM (inactive) | IC50 (Melanocortin receptor 4): > 64.6 µM (inactive) | EC50 [12]: 3.69 µM (active)

O=C1C2C3C=CC(C3)C2C(=O)N1c1n[nH]c(-c2cccnc2)n1 (configuration not stated)
IC50 [13]: 7.69 µM (active) | EC50 [14]: > 100 µM (inactive) | IC50 [15]: > 100 µM (inactive) | IC50 [16]: 5.18 µM (active)

Cc1cccc(-n2ncc3c(NNC(=O)c4ccco4)ncnc32)c1
EC50 [17]: 7.33 µM (active) | EC50 [18]: 7.58 µM (active) | IC50 [19]: 66.9 µM (active) | EC50 [20]: 7.19 µM (active)

CC(C)c1ccc(NC(=O)CCc2ccccc2)cc1
EC50 [21]: 7.33 µM (active) | EC50 [22]: 52.1 µM (active) | AC50 [23]: 6.63 µM (active) | EC50 (cells [24]): > 350 µM (not active) | AC50 [25]: 40.5 µM (active) | EC50 (cells [26]): > 350 µM (not active) | EC50 (H4): > 120 µM (inconclusive)
